Laboratory results published in ChEMBL document CHEMBL1201862, “PubChem BioAssay data set” (2004).
Active and inactive are the calls of the source.

Key:
Trypsin = Trypsin (Sus scrofa, UniProt P00761); experiment: porcine trypsin inhibitors, dose response, selectivity assay for Rce1 protease inhibitor project, biochemical, quenched peptide fluorescence, cherry-pick (AID 488789)
CAAX prenyl protease 1 = CAAX prenyl protease 1 (Saccharomyces cerevisiae S288c, UniProt P47154); experiment: Ste24 protease inhibitors, dose response, biochemical, S. cerevisiae, plate reader, cherry-pick (AID 488815)
[1] = inhibitors of Bluetongue virus cytopathic effect, confirmation, arbovirus, BSR cells (AID 1250); type: functional;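 also: protection from viral cytopathic effect measured as cell viability by ATP luminescence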
Bcl-2-like protein 1 = Bcl-2-like protein 1 (Homo sapiens, UniProt Q07817); experiment: BCL-XL inhibitors, dose response, selectivity assay for MCL1 inhibitor project, biochemical, fluorescence polarization, 1536-well (AID 2218)
Cysteine protease ATG4B = target: T1, Cysteine protease ATG4B (Homo sapiens, UniProt Q9Y4P1); type: functional;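 also: Fluorescence-based dose-response confirmation assay measuring inhibition of ATG4B activity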
T1 sequence (Q9Y4P1 whole entry): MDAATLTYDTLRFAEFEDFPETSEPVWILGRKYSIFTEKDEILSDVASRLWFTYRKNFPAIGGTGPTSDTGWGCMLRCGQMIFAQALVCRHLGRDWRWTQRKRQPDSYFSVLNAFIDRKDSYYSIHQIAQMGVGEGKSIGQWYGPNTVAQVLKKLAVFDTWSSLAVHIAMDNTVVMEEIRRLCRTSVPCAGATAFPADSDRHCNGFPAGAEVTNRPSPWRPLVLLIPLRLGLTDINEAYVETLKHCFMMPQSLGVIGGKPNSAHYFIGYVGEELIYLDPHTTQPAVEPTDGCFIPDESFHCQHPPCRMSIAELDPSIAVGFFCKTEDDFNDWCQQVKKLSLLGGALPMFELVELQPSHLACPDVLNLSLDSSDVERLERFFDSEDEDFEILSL

[2] = target: T2, Voltage-gated N-type calcium channel alpha-1B subunit/Amyloid beta A4 precursor protein-binding family A member 1 (Homo sapiens, UniProt Q00975+Q02410); type: protein assay
T2 sequence (Q00975 whole entry): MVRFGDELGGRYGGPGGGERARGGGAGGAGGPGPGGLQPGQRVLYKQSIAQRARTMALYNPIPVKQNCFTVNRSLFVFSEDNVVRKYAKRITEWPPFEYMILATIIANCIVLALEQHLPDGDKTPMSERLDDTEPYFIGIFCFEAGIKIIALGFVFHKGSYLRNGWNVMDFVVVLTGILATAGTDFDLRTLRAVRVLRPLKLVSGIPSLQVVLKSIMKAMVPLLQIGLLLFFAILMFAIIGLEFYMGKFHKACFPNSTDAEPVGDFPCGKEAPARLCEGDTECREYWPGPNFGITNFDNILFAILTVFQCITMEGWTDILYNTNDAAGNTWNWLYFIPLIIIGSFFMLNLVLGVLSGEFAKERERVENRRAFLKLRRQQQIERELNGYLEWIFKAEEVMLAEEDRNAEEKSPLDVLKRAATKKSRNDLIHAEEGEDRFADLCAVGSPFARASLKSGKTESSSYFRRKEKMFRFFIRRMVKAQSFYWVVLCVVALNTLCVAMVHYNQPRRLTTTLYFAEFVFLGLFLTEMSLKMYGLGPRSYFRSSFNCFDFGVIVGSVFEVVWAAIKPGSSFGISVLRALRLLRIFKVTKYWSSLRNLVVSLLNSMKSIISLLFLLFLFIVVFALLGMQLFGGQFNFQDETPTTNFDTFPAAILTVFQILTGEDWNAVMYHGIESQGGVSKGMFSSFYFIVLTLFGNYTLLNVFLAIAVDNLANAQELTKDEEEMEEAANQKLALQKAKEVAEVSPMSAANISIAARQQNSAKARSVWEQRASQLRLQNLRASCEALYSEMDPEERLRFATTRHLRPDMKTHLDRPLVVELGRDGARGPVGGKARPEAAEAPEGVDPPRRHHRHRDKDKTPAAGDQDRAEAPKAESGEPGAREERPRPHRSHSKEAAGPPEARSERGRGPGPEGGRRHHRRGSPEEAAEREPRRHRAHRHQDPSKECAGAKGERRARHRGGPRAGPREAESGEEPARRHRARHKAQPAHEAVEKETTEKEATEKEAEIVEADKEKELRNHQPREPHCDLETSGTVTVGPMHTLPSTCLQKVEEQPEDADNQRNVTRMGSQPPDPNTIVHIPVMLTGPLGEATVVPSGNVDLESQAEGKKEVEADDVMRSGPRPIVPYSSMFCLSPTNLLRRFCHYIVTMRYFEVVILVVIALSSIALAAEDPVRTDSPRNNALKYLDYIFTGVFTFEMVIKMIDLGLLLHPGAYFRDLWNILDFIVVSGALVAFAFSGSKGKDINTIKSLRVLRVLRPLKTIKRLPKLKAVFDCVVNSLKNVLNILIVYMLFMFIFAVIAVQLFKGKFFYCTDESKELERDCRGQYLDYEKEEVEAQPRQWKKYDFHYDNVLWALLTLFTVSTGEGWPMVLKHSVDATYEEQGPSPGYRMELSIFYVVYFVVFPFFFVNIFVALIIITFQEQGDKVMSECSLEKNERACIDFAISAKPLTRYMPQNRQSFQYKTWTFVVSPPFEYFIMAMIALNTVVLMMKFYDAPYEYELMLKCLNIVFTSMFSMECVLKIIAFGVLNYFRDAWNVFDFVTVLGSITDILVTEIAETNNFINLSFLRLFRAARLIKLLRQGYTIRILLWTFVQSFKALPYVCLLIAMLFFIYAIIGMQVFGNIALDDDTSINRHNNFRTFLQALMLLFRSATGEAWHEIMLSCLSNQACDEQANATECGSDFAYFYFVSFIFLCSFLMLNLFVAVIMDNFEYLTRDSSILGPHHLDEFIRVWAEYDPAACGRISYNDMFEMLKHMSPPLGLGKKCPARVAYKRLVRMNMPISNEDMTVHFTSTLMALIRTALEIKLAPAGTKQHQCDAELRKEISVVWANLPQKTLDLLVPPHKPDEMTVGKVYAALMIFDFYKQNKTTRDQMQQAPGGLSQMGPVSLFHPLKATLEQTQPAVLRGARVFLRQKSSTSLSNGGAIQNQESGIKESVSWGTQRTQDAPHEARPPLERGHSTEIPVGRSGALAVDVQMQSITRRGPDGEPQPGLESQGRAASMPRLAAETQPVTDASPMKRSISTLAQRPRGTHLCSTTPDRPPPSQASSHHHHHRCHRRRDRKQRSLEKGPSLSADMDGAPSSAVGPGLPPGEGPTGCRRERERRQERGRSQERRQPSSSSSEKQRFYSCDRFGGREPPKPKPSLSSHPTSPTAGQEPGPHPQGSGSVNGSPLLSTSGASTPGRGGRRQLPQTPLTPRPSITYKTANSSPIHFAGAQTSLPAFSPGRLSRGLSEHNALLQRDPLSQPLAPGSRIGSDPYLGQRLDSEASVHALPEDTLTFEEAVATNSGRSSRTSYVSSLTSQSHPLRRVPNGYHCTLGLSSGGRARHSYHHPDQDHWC
T2 sequence (Q02410 whole entry): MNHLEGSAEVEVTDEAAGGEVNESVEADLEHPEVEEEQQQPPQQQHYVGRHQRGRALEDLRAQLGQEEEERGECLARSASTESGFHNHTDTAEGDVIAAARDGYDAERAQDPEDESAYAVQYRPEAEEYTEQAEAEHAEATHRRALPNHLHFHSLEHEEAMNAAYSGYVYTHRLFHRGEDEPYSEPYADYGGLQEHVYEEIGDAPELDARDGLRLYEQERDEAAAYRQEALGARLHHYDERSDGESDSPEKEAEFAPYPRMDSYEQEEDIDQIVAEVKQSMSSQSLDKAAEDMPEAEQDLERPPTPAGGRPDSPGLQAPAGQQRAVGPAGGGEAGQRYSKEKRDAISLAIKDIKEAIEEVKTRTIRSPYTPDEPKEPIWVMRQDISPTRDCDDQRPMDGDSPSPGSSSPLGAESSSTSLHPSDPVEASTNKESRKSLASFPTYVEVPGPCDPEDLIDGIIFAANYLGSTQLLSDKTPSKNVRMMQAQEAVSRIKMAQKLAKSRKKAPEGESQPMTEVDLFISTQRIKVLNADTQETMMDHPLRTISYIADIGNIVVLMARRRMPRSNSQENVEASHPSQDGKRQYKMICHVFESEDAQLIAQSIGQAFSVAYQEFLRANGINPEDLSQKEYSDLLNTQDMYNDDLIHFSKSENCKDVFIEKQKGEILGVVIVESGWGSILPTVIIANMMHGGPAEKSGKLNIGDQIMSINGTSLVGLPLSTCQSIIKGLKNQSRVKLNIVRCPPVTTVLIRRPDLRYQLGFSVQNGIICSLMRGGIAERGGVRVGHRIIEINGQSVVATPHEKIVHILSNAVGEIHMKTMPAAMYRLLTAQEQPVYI

Phospholipase A2 = Phospholipase A2 (Homo sapiens, UniProt P04054); type: functional;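 also: confirmatory dose-response counterscreen on phospholipase A2, testing hits that came from an ultra-high-throughput screen for ATG4B inhibitors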
Chain of Phospholipase A2 (P04054 whole entry): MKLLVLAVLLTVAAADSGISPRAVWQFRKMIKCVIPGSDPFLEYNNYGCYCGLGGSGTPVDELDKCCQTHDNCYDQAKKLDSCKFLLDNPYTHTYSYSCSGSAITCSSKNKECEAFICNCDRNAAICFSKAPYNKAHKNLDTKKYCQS

NS3 = NS3 (Hepatitis C virus, UniProt A3EZJ3); experiment: PubChem AID 2173; design: species or system Hepacivirus hominis
[3] = target: T3, Induced myeloid leukemia cell differentiation protein Mcl-1 (Homo sapiens, UniProt Q07820); experiment: MCL1-BIM BH3 interaction inhibitors, dose response, biochemical, fluorescence polarization, BIM-BH3 peptide, 1536-well (AID 2217)
T3 sequence (Q07820 whole entry): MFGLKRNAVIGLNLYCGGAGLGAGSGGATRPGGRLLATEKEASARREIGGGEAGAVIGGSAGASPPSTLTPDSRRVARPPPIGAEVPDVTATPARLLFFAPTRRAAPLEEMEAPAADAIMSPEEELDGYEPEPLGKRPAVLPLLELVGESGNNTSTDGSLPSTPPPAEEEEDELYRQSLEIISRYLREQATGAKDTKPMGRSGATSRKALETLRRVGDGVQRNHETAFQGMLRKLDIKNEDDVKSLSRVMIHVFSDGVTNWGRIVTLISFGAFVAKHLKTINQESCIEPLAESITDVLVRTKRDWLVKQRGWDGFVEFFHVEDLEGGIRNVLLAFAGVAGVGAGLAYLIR

[4] = target: T4, Dual specificity protein phosphatase 3 (Homo sapiens, UniProt P51452); experiment: VHR1 phosphatase inhibitors, primary screen, biochemical, absorbance, uHTS (AID 1654)
T4 sequence (P51452 whole entry): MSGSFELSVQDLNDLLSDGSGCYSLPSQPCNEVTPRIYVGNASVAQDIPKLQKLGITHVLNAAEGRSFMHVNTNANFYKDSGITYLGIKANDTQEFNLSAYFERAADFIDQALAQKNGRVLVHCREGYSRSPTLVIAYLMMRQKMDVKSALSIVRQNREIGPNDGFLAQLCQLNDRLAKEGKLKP

[5] = target: Eukaryotic translation initiation factor 4E (Mus musculus, UniProt P63073); experiment: eIF4E–eIF4G protein interaction inhibitors, dose response, biochemical, TR-FRET (AID 855); type: functional;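 also: potency for disrupting eIF4E binding to eIF4GI seen as loss of FRET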
[6] = target: T2, Voltage-gated N-type calcium channel alpha-1B subunit/Amyloid beta A4 precursor protein-binding family A member 1; type: protein assay; remark: listed apart in the source
[7] = target: T4, Dual specificity protein phosphatase 3; experiment: VHR1 phosphatase inhibitors, biochemical (AID 1878)
[8] = target: Dual specificity protein phosphatase 6 (Rattus norvegicus, UniProt Q64346); experiment: MKP-3 phosphatase inhibitors, primary screen, biochemical, rat enzyme, in vitro (AID 425)
[9] = target: T3, Induced myeloid leukemia cell differentiation protein Mcl-1; type: functional
[10] = target: T5, Delta-type opioid receptor (Homo sapiens, UniProt P41143); experiment: DOR antagonists, SAR follow-up, image-based (AID 2357); type: functional
T5 sequence (P41143 whole entry): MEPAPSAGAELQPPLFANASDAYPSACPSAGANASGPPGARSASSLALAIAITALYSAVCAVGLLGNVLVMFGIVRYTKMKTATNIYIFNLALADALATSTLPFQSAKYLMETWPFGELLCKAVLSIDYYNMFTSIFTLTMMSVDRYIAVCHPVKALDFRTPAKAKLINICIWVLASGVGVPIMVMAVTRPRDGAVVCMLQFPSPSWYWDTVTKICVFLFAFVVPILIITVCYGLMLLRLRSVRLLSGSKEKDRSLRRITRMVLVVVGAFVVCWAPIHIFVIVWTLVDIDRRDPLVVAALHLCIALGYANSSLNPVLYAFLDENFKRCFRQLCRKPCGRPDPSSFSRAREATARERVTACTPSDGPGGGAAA

Mu-type opioid receptor [11] = target: T6, Mu-type opioid receptor (Homo sapiens, UniProt P35372); experiment: MOR antagonists, SAR follow-up, image-based (AID 2420); type: functional;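 also: compounds added before stimulation of receptor with agonist DAMGO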
T6 sequence (P35372 whole entry): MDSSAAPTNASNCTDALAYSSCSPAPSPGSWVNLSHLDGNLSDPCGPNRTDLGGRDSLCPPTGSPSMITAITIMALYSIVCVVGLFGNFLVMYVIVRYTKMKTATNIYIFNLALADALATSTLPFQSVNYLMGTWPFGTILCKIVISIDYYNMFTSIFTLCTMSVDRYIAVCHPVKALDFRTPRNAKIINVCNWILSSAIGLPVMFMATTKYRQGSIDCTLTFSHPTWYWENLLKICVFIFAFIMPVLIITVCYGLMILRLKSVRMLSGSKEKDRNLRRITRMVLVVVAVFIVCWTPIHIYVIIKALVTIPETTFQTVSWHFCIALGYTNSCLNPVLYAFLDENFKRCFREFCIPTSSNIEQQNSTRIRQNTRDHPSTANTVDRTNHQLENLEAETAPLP

[12] = target: T5, Delta-type opioid receptor; experiment: DOR agonists, SAR follow-up, image-based (AID 2370); type: functional
[13] = target: T7, Kappa-type opioid receptor (Homo sapiens, UniProt P41145); experiment: kappa opioid receptor blockers, cell-based, luminescence, beta-arrestin, SAR follow-up (AID 2285); type: functional
T7 sequence (P41145 whole entry): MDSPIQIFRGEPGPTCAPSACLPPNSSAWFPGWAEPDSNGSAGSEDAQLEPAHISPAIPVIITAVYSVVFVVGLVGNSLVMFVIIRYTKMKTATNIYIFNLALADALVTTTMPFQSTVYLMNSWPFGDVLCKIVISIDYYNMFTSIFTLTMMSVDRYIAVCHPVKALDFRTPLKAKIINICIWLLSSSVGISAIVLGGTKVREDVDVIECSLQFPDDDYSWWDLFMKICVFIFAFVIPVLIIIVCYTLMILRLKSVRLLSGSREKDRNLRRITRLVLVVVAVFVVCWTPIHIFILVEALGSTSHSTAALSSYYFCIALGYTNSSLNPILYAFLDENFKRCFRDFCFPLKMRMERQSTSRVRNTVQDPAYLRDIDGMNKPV

[14] = target: T7, Kappa-type opioid receptor; experiment: KOR antagonists by imaging, SAR follow-up, image-based (AID 2348); type: functional
Mu-type opioid receptor [15] = target: T6, Mu-type opioid receptor; experiment: MOR agonists by imaging, SAR follow-up, image-based (AID 2352); type: functional
[16] = target: T7, Kappa-type opioid receptor; experiment: KOR agonist analogs, imaging readout, SAR follow-up, image-based (AID 2359); type: functional

Compound: CCCCNC(=O)C(CC)Sc1nc2sc(C(=O)OC)c(C)c2c(=O)n1N (configuration not stated)
- AC50 (Trypsin): 0.985 µM (active)
- AC50 (CAAX prenyl protease 1): 8.14 µM (active)

Compound: COc1ccc(-n2cccc2/C=C2\C(=N)N3N=C(c4ccco4)SC3=NC2=O)cc1
- IC50 [1]: 33.2 µM (active)
- IC50 (Bcl-2-like protein 1): > 109 µM (not active)
- IC50 (Cysteine protease ATG4B): 2.73 µM (active)
- IC50 [2]: 14.1 µM (active)
- IC50 (Phospholipase A2): 1.09 µM (active)
- IC50 (NS3): 7.79 µM (active)
- IC50 [3]: 4.93 µM (active)
- IC50 [4]: 6.65 µM (active)
- IC50 [5]: 50 µM (inactive)
- IC50 [6]: > 50 µM (inactive)
- IC50 [7]: 2.27 µM (active)
- IC50 [8]: 9.04 µM (active)
- IC50 [9]: 19.3 µM (active)

Compound: Oc1ccc(C=NNc2ccnc3cc(Cl)ccc23)cc1O
- IC50 [10]: 18.9 µM (inactive)
- IC50 (Mu-type opioid receptor [11]): > 32 µM (inactive)
- EC50 [12]: > 32 µM (inactive)
- IC50 [13]: > 10 µM (inactive)
- IC50 [14]: 24.8 µM (inactive)
- EC50 (Mu-type opioid receptor [15]): > 32 µM (inactive)
- EC50 [16]: > 32 µM (inactive)
